Experimental data from the NIST ThermoML archive (doi:10.1016/j.jct.2014.07.001).

How the values were obtained:
[1] = Drop volume
[2] = xn = mol fraction of the nth substance listed; details: Drop volume

CCO [ethanol]
[1]
Details | surface tension liquid-gas [mN/m]
293.15 K | 22.28
303.15 K | 21.49
313.15 K | 20.66
323.15 K | 19.84

CCCC[n+]1ccccc1.F[B-](F)(F)F [1-butylpyridinium tetrafluoroborate]
[1]
Details | surface tension liquid-gas [mN/m]
293.15 K | 46.9
303.15 K | 46.3
313.15 K | 45.69
323.15 K | 45.11

CCCC[n+]1cccc(C)c1.F[B-](F)(F)F [1-butyl-3-methylpyridinium tetrafluoroborate]
[1]
Details | surface tension liquid-gas [mN/m]
293.15 K | 45.21
303.15 K | 44.48
313.15 K | 43.8
323.15 K | 43.24

CCC[n+]1ccccc1.F[B-](F)(F)F [1-propylpyridinium tetrafluoroborate]
[1]
Details | surface tension liquid-gas [mN/m]
293.15 K | 51.29
303.15 K | 50.51
313.15 K | 49.79
323.15 K | 49.03

CCCC[n+]1ccc(C)cc1.F[B-](F)(F)F [1-butyl-4-methylpyridinium tetrafluoroborate] + CO
surface tension liquid-gas [mN/m], [2]
Details | 293.15 K | 303.15 K | 313.15 K | 323.15 K
x1 = 0.0247 | 23.3 | 22.55 | 21.71 | 20.88
x1 = 0.0983 | 25.35 | 24.66 | 23.92 | 23.23
x1 = 0.195 | 27.93 | 27.31 | 26.68 | 26.12
x1 = 0.2914 | 30.53 | 29.98 | 29.46 | 29.05
x1 = 0.3909 | 33.11 | 32.62 | 32.2 | 31.91
x1 = 0.4915 | 35.62 | 35.17 | 34.81 | 34.6
x1 = 0.5378 | 36.77 | 36.34 | 36.02 | 35.84
x1 = 0.61 | 38.46 | 38.04 | 37.73 | 37.57
x1 = 0.6875 | 40.19 | 39.77 | 39.45 | 39.29
x1 = 0.7911 | 42.37 | 41.9 | 41.55 | 41.32
x1 = 0.842 | 43.32 | 42.81 | 42.4 | 42.1
x1 = 0.8754 | 43.91 | 43.36 | 42.91 | 42.54
x1 = 1 | 45.82 | 45.09 | 44.41 | 43.71

CO [methanol] + CCCC[n+]1ccccc1.F[B-](F)(F)F
[2], x2 = 0
Details | surface tension liquid-gas [mN/m]
293.15 K | 22.6
303.15 K | 21.81
313.15 K | 20.93
323.15 K | 20.05

CCCC[n+]1ccc(C)cc1.F[B-](F)(F)F [1-butyl-4-methylpyridinium tetrafluoroborate] + CCO
surface tension liquid-gas [mN/m], [2]
Details | 293.15 K | 303.15 K | 313.15 K | 323.15 K
x1 = 0.0497 | 22.7 | 22.02 | 21.32 | 20.63
x1 = 0.0993 | 23.17 | 22.6 | 22.02 | 21.44
x1 = 0.1995 | 24.47 | 24.08 | 23.68 | 23.27
x1 = 0.2946 | 25.95 | 25.68 | 25.41 | 25.14
x1 = 0.36 | 27.2 | 26.98 | 26.77 | 26.55
x1 = 0.4269 | 28.57 | 28.38 | 28.22 | 28.04
x1 = 0.4882 | 29.99 | 29.81 | 29.65 | 29.49
x1 = 0.589 | 32.66 | 32.44 | 32.25 | 32.05
x1 = 0.7001 | 35.92 | 35.61 | 35.34 | 35.05
x1 = 0.7895 | 38.75 | 38.33 | 37.95 | 37.57
x1 = 0.8345 | 40.28 | 39.79 | 39.35 | 38.89
x1 = 0.8805 | 41.85 | 41.29 | 40.77 | 40.25
x1 = 1 | 45.82 | 45.09 | 44.41 | 43.71

CCCC[n+]1cccc(C)c1.F[B-](F)(F)F [1-butyl-3-methylpyridinium tetrafluoroborate] + CO
surface tension liquid-gas [mN/m], [2]
Details | 293.15 K | 303.15 K | 313.15 K | 323.15 K
x1 = 0.0489 | 23.93 | 23.18 | 22.36 | 21.55
x1 = 0.1011 | 25.33 | 24.62 | 23.88 | 23.15
x1 = 0.1984 | 27.89 | 27.26 | 26.63 | 26.04
x1 = 0.2961 | 30.43 | 29.87 | 29.36 | 28.9
x1 = 0.4021 | 33.15 | 32.66 | 32.26 | 31.9
x1 = 0.4935 | 35.36 | 34.89 | 34.55 | 34.25
x1 = 0.5892 | 37.57 | 37.12 | 36.81 | 36.56
x1 = 0.688 | 39.67 | 39.2 | 38.86 | 38.62
x1 = 0.7395 | 40.72 | 40.22 | 39.87 | 39.6
x1 = 0.8001 | 41.87 | 41.35 | 40.95 | 40.65
x1 = 0.8803 | 43.3 | 42.72 | 42.23 | 41.86
x1 = 0.935 | 44.21 | 43.56 | 42.99 | 42.53
x1 = 1 | 45.21 | 44.48 | 43.8 | 43.24

CO [methanol] + CCC[n+]1ccccc1.F[B-](F)(F)F
[2], x2 = 0
Details | surface tension liquid-gas [mN/m]
293.15 K | 22.6
303.15 K | 21.81
313.15 K | 20.93
323.15 K | 20.05

CO [methanol]
[1]
Details | surface tension liquid-gas [mN/m]
293.15 K | 22.6
303.15 K | 21.81
313.15 K | 20.93
323.15 K | 20.05

CCCC[n+]1ccc(C)cc1.F[B-](F)(F)F [1-butyl-4-methylpyridinium tetrafluoroborate]
[1]
Details | surface tension liquid-gas [mN/m]
293.15 K | 45.82
303.15 K | 45.09
313.15 K | 44.41
323.15 K | 43.71
